Measured values taken from US5654427A, “Indolocarbazole derivatives to treat a pathological condition of the prostate” (Kyowa Hakko Kogyo Co., Ltd., priority 1995, dated 1997).

Legend:
[1] = system: Dunning R-3327 AT-2.1 prostate tumor; experiment: inhibition of growth of Dunning R-3327 AT-2.1 prostate tumor in adult male Copenhagen rats; format: in vivo, rat; settings: 10 mg/kg/day s.c.
From the text: The AT-2 tumor is a highly anaplastic cell line derived from the original slow-growing androgen-dependent Dunning R-3327 H rat prostate tumor (Issacs et al., Prostate 9:261-281, 1986). The AT-2 tumor model has been used to characterize other potential anti-prostatic cancer agents including linomide (Ichikawa et al., Cancer Research 52:3022-3028, 1992) and suramin (Morton et al., Prostate 17:327-336, 1990) which is undergoing evaluation in clinical trials for androgen-independentprostate cancer (Eisenberger et al., J. Natl. Can. Inst. 85: 611-621, 1993).
Experimental Protocol: Twenty-four inbred male Copenhagen rats were inoculated subcutaneously in the flank with 1×10^6 viable AT-2.1 tumor cells. All animals were allowed to develop tumors of approximately 2.7 cm^3 in size (approximately 14 days) before being randomized into three groups of 8 animals each. Group 1 received daily subcutaneous injections of vehicle alone (1 ml/kg body weight). […] All animals had their tumor sizes evaluated for a period of 16 days. Tumor volume was calculated using the formula (1×w^2)×0.5.

[2] = system: Du-Pro1; experiment: growth inhibition of Du-Pro1 prostate cancer cells (calcein fluorescence); format: cell-based; settings: Homo sapiens, 72 h; 3 days incubation; read-out: Du-Pro1 IC50
Method: (§1) Throughout the experiment the Tsu-Pr1 and Du-Pro1 cells were maintained in RPMI 1640 medium (GIBCO) containing 10% fetal bovine serum (Hyclone), 2 mM glutamine, 100 U/ml penicillin, and 100 μg/ml streptomycin. The PC-3 cells were maintained in Ham's F12K medium (Irvine Scientific) containing 10% fetal bovine serum (Hyclone), 2 mM glutamine, 100 U/ml penicillin, and 100 μg/ml streptomycin. All cell lines were maintained at 37° C. in a humidified atmosphere containing 5% CO2. The DU-145 cells were maintained in minimal essential medium (Gibco), containing 10% fetal bovine serum (Hyclone), 2 mM glutamine, and no antibiotics.
(§2) Tests for growth inhibition by the candidate compounds were conducted by the following procedure. In each well of a 96-well plate (Falcon) were placed 2,500 cells in 0.1 ml of medium. The cultures were incubated overnight after which a 0.1 ml aliquot of culture medium was added to each well. […] Other control wells received medium without any K-252a derivative compounds. Incubation was continued for three days. On day three the number of cells in each well was measured using a calcein fluorescence assay (Bozyczko-Coyne et al. J. Neurosci. Meth. 50, 205-216 (1993)).
(§3) Calcein AM (Molecular Probes, Eugene, Oreg.), an analog of the viable dye fluorescein diacetate, is taken up by cells and cleaved intracellularly to fluorescent salts that are retained by intact membranes of viable cells. This method thus provides a reliable and quantitative measurement of cell survival. Calcein AM was diluted 2× in Dulbeccos phosphate buffered saline (D-PBS) to 2× the final assay concentration (6 μM) and 100 μl was added to culture wells containing 100 μl of medium. The plates were then incubated for 1 hour at 37° C. Cells were then washed 4 times with D-PBS to remove excess calcein not taken up by cells. The plate was read using a Millipore plate reading fluorimeter (Cytofluor 2350) at emission=485 nm and excitation=538 nm. After subtraction of blank values (wells containing medium but no cells), relative fluorescent values reflect a quantitative measurement of cell survival.
(§4) The number of cells in the wells containing functional derivatives was compared to the number of cells in the control wells. The concentration which inhibited cell growth by 50% was calculated and is referred to as the "IC50 ".

[3] = system: DU-145; experiment: growth inhibition of DU-145 prostate cancer cells (calcein fluorescence); format: cell-based; settings: Homo sapiens, DU-145, 72 h; 3 days incubation; read-out: DU-145 C50
Method: as §1, §2, §3, §4

[4] = system: androgen independent human prostate cancer cell lines Tsu-Pr1, DuPro-1, PC-3 and DU-145; experiment: growth inhibition of prostate cancer-derived cell lines, overall (calcein fluorescence); format: cell-based; settings: Table 3
Method: as §1, §2
Calcein AM (Molecular Probes, Eugene, Oreg.), an analog of the viable dye fluorescein diacetate, is taken up by cells and cleaved intracellularly to fluorescent salts that are retained by intact membranes of viable cells. This method thus provides a reliable and quantitative measurement of cell survival. Calcein AM was diluted 2× in Dulbeccos phosphate buffered saline (D-PBS) to 2× the final assay concentration (6 μM) and 100 μl was added to culture wells containing 100 μl of medium. The plates were then incubated for 1 hour at 37° C. Cells were then washed 4 times with D-PBS to remove excess calcein not taken up by cells. The plate was read using a Millipore plate reading fluorimeter (Cytofluor 2350) at emission=485 nm and excitation=538 nm. After subtraction of blank values (wells containing medium but no cells), relative fluorescent values reflect a quantitative measurement of cell survival. […]

[5] = system: Tsu-Pr1; experiment: growth inhibition of Tsu-Pr1 prostate cancer cells (calcein fluorescence); format: cell-based; settings: Homo sapiens, TSU-Pr1, 72 h; 3 days incubation; read-out: Tsu-Pr1 IC50
Method: as §1, §2, §3, §4

[6] = body weight and weight of peripheral organs in sexually immature mice; settings: for Body Weight: Table 6, TEPBS 32.0 ± 0.6; for Heart weight / Testes weight / Stomach weight / Lung weight / Kidney weight / Liver weight: Table 7; for Heart weight: TEPBS 170 ± 10; for Testes weight: TEPBS 206 ± 8; for Stomach weight: TEPBS 272 ± 14; for Lung weight: TEPBS 280 ± 15; for Kidney weight: TEPBS 589 ± 34; for Liver weight: TEPBS 2004 ± 69
From the text: The following animal model can be used to test the efficacy of a functional derivative for treatment of a proliferative prostate condition. Sexually immature male mice of 15-20 g each (Charles River Laboratories, Raleigh, N.C.) were used in the following in vivo study. The mice were allowed at least 3 days after purchase to acclimate before being used in any experiments.
Each test group contained 12 mice. […] At the end of the 21 day dosing period the mice were sacrificed and whole body blood, dorsal prostate, ventral prostate, coagulating glands, seminal vesicles, heart, liver, stomach, lung, kidneys and testes were collected separately and weighed.

[7] = target: T1, trkA (Rattus norvegicus, UniProt P35739); experiment: inhibition of NGF-stimulated trk autophosphorylation (tyrosine phosphorylation) in PC12 cells, anti-phosphotyrosine Western blot; format: cell-based; settings: 100 nM compound, NGF 50 ng/ml; further: key: +: Inhibited phosphorylation; -: Did not inhibit phosphorylation
T1 construct: are rat pheochromocytoma cells that bear trkA; host or cells: PC12 rat pheochromocytoma cells
T1 sequence (P35739 33-799): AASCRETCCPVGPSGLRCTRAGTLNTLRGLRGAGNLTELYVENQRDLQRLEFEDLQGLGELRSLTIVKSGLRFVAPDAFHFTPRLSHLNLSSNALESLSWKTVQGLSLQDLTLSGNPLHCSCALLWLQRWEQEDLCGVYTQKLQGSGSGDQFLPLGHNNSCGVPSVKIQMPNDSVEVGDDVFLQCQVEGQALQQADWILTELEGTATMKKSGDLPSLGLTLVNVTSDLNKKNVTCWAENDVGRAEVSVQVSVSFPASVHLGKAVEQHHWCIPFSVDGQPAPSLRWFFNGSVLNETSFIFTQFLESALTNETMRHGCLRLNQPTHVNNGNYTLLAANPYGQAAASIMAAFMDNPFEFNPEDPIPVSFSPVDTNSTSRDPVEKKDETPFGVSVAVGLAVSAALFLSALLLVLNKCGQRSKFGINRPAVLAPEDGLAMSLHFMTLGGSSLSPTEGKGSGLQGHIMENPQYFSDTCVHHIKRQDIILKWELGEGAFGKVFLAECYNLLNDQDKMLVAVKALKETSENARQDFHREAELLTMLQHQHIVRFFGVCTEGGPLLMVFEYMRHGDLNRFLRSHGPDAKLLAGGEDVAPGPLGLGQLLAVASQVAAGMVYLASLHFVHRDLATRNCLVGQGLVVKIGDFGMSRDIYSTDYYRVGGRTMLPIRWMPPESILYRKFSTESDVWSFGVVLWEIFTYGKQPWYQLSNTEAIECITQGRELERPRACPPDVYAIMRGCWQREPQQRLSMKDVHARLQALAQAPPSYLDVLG

IC50 [2]: 270 nM
IC50 [3]: 110 nM
IC50 [5]: 70 nM
trk 100 nM (inhibition of phosphorylation) [7]: +
Compound: COC1(CO)CC2OC1(C)n1c3ccccc3c3c4c(c5c6ccccc6n2c5c31)C(=O)NC4 (stereo not shown) [Compound I-19]
inhibiting growth of AT-2.1 tumors ([1]; approximately): 50-60%
Tumor volume Day 0 ([1]; vehicle 2.73 ± 0.50): 2.62 ± 0.53 cm^3
Tumor volume Day 3 ([1]; vehicle 6.66 ± 1.48): 5.52 ± 1.10 cm^3
Tumor volume Day 8 ([1]; vehicle 21.0 ± 3.0): 11.3 ± 1.8 cm^3
Tumor volume Day 13 ([1]; vehicle 37.3 ± 4.0): 22.4 ± 2.7 cm^3
Tumor volume Day 16 ([1]; vehicle 58.7 ± 5.0): 28.4 ± 5.1 cm^3
potency in inhibiting prostate cell line growth, in words [4]: most potent compounds in inhibiting growth in all four cell lines
Body Weight ([6]; 1 mg/kg): 31.9 ± 0.8 g
Body Weight ([6]; 10 mg/kg): 31.2 ± 0.5 g
Heart weight ([6]; 1 mg/kg): 160 ± 20 mg
Testes weight ([6]; 1 mg/kg): 205 ± 7 mg
Stomach weight ([6]; 1 mg/kg): 252 ± 12 mg
Lung weight ([6]; 1 mg/kg): 323 ± 16 mg
Kidney weight ([6]; 1 mg/kg): 467 ± 18 mg
Liver weight ([6]; 1 mg/kg): 1968 ± 58 mg
Heart weight ([6]; 10 mg/kg): 166 ± 8 mg
Testes weight ([6]; 10 mg/kg): 208 ± 8 mg
Stomach weight ([6]; 10 mg/kg): 242 ± 11 mg
Lung weight ([6]; 10 mg/kg): 276 ± 18 mg
Kidney weight ([6]; 10 mg/kg): 563 ± 17 mg
Liver weight ([6]; 10 mg/kg): 1933 ± 70 mg
